Assay results taken from patent US20090227606A1, “Methods for Preventing or Treating Acute and Chronic Pain” (priority 2006, published 2009).
“Also recorded” adds a separate entry of the source.

Experiments:
GLAST mRNA = test: Real Time RT-PCR of cultured astrocytes, GLAST mRNA; format: cell-based, rat
Procedure: (§1) After approximately 14 days (2 days after subplating into plates, DIV 14) astrocytes had formed a confluent monolayer. […] Phase contrast microscopy was then carried out in order to assess the morphology of cells after the various treatments. Length of astrocyte processes was quantified by measuring all processes in 2-3 phase contrast images/group by an independent observer, blinded to the treatment groups using Image J v1.34s (National Institutes of Health, Bethesda, Md.).
Total RNA was isolated from astrocyte cultures using the Qiagen RNeasy mini-kit (Qiagen Inc., Valencia, Calif.) according to the manufacturer's protocol for isolation of total RNA from animal cells. Reverse transcription (RT) was carried out using the high-capacity cDNA archive kit (Applied Biosystems, Foster City, Calif.) according to the vendor's protocol. Real-time RT-PCR reactions were carried out in a total reaction volume of 25 μL containing a final concentration of 1.5 U Platinum Taq DNA polymerase (Invitrogen Corporation, Carlsbad, Calif.); 20 mM Tris HCl (pH 8.4); 50 mM KCl; 3 mM MgCl2; 200 μM dGTP, dCTP, and dATP; 400 μM dUTP and 1 U of UDG (uracyl DNA glycosylase); 900 nM of forward and reverse primers; 300 nM Taqman probe; and 5 μL of cDNA (50 ng) from the RT step. The iCycler™ Multicolor Real-Time PCR detection system (Bio-Rad Laboratories, Hercules, Calif.) was used to quantify PCR product. The fluorescence and threshold values (CT) obtained were used to compare the relative amount of target mRNA in experimental groups to those of controls using the 2^−ΔΔC^T method (Livak, K. J. and T. D. Schmittgen. 2001. Methods 25:402-408). Each experiment was run twice and samples were run in duplicate. For each sample, the mean CT value for the control gene (GAPDH) was then subtracted from the mean CT value for the gene of interest (GLT-1, GLAST) to obtain a ΔCT value. […] The relative fold change from control was then expressed by calculation of 2^−ΔΔC^T for each sample and the results are expressed as the group mean fold change±SEM.

[1] = test system: L5 spinal nerve transection; conditions: systemically or intrathecally administered; Sweitzer et al. 2001; cited from earlier work
GFAP = GFAP expression in mouse spinal cord dorsal horn; format: in vivo; conditions: dorsal horn upper laminae, day 12, 10 mg/kg i.p. daily
Procedure: With these in vivo data collected, further experiments were performed in the transgenic mice to more clearly define the effects of propentofylline treatment on GLT-1 and GLAST in the spinal cord. As discussed above, following in vivo testing, mice were transcardially perfused and tissue was fixed with paraformaldehyde. Lumbar spinal cord sections were identified and post-fixed in paraformaldehyde. After one week in sucrose to prevent freeze fracture, spinal cord segments were frozen in dry ice, mounted and prepared with cryostat sectioning. Sections were then subjected to immunohistochemical analysis. […] In order to quantitate the relative number of eGFP (marker for GLT-1) or DsRed (marker for GLAST) puncta in each spinal cord dorsal horn, images using a fluorescence microscope were taken with a Q-Fire cooled camera (397 ms exposure). […] An observer blind to the treatment groups was used to count the relative number of GLT-1 or GLAST positive puncta in the ipsilateral (injured) dorsal horn versus the contralateral (non-injured) dorsal horn. […]
As described previously with rats, mice were transcardially perfused with 0.1 M PBS (phosphate-buffered saline), pH 7.4, followed by 4%-paraformaldehyde in PBS on day 12 post-L5 spinal nerve transection. […] The sections were examined with a fluorescence microscope, and images were captured with a Q-Fire cooled camera. […]

[2] = test system: primary cultured astrocytes; test: Astrocyte morphology and process length, phase contrast microscopy; format: cell-based, rat; conditions: 3 days or 7 days of treatment, phase contrast microscopy
Procedure: Astrocyte cultures were prepared from the cortices of neonatal rats (1-3 days old) using the Worthington Papain Dissociation System (Worthington Biochemical Corporation, Lakewood, N.J.) according to the method of Huettner and Baughman (1986. J. Neurosci. 6:3044-3060). Briefly, cortices of neonatal rats were dissected, treated with papain (20 U/ml), dissociated by trituration and plated in 75 cm^2 flasks in Dulbecco's modified Eagle's medium (DMEM) supplemented with 10% charcoal-stripped fetal bovine serum (FBS), 1% GlutaMax and 1% penicillin/streptomycin (P/S, 100 U/ml penicillin, 100 μg/ml streptomycin, P/S). Cells were fed twice weekly until they reached confluence (Day in vitro, DIV 10-12) at which point they were mechanically shaken for 1 hr on an orbital shaker to remove any remaining oligodendrocytes and microglia. Subsequently, cultures were treated with trypsin for 30 minutes at 37° C. and re-plated into 6 or 12-well dishes at a density of about 3.0×10^4 cells/cm^2. Resultant cultures were greater than 95% astrocytic as determined by GFAP immunostaining.
as §1

Question: Which “increase in GLAST mRNA” value (GLAST mRNA; both days 3 and 7) does the source give for `CCCn1cnc2c1c(=O)n(CCCCC(C)=O)c(=O)n2C` [propentofylline] here?
Answer: Its value is 1.5-2 fold.

Question: And the “GLAST mRNA level, in words” value (GLAST mRNA; propentofylline 10, 100, 1000 μM, db-cAMP 250 μM, relative to GAPDH)?
Answer: Its value is “enhancement of GLT-1 and GLAST mRNA levels in a dose-dependent manner; also recorded: dose-dependently induced GLT-1 and GLAST at the mRNA level”.

Question: And the “mechanical allodynia induced by L5 spinal nerve transection” value [1]?
Answer: Its value is “exhibits anti-allodynic properties; also recorded: attenuated mechanical allodynia”.

Question: What about the “injury-induced GFAP expression” value (GFAP) of the same compound?
Answer: The value was “suppressed injury-induced GFAP expression”.

Question: What about the astrocyte morphology [2] of the same compound?
Answer: The astrocyte morphology was “dose-dependent shift from a flat, polygonal shape to a stellate, process-bearing shape”.
